Assay results from patent US5773423A (priority 1994, dated 1998).
Where a chain is given by its changes, count along the chain named. Where two headings read alike, the source gives them in different places.

Key:
[1] = system: locomotor activity in mice; assay: Locomotor activity in mice (open field, Digiscan activity monitor); assay type: in vivo, mouse (NIH Swiss)
[2] = system: cardiovascular parameters in rats; assay type: in vivo, rat; details: 0.1 mg/kg i.p.
Protocol: Rats (each weighing 300-340 g) were lightly anesthetized using 1.5-2% halothane. They were monitored for heart rate with a tail sensor and blood pressure using the tail cuff method. Peripheral blood flow (scalp) was monitored using a Perimed laser Doppler blood flow apparatus, with a narrow diameter probe placed in contact with the shaved skin above the center of the cranium. A small amount of clear gel was applied to maintain uniform transmission of light. Body temperature was measured using a rectal probe. Respiratory rate was also recorded. Measurements were made at regular intervals: every 2 min for the first ten min period, and every five min thereafter, until 30 min, at which time a 30 min interval was used, until 90 min. […] Drugs were dissolved in a vehicle consisting of an 80:20 mixture of Alkamuls EL-620 and saline, pH 7.4. […] When administered alone, the agonist was given at the beginning of the monitoring period. When coadministered with an antagonist, the antagonist was given at the beginning of the monitoring period, and the agonist was given after 10 min.

[3] = target: T1, adenosine uptake sites in rat brain membranes (Rattus norvegicus, UniProt O54698); assay: Competition for [3H]NBTI binding at adenosine uptake sites in rat striatal membranes; details: for Ki: read-out: Ki (NBTI), 0.3 nM [3H]NBTI, 30 min at 23° C., pH 7.4
T1 sequence (O54698 1-457): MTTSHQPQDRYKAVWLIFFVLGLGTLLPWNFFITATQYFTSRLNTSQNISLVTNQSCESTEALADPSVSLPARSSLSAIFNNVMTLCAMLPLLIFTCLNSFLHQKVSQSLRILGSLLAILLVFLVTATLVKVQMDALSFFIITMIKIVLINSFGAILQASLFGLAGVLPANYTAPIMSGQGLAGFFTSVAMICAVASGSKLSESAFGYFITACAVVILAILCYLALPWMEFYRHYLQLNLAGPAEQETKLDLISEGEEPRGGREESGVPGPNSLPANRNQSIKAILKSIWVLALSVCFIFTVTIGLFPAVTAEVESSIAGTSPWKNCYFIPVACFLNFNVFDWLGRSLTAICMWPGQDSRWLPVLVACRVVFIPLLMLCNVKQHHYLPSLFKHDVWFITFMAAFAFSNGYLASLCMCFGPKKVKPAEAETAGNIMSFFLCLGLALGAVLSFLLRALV

[4] = target: T2, A1 and A3 adenosine receptors in mouse brain membranes (Mus musculus, UniProt Q60612)
T2 sequence (Q60612 1-326): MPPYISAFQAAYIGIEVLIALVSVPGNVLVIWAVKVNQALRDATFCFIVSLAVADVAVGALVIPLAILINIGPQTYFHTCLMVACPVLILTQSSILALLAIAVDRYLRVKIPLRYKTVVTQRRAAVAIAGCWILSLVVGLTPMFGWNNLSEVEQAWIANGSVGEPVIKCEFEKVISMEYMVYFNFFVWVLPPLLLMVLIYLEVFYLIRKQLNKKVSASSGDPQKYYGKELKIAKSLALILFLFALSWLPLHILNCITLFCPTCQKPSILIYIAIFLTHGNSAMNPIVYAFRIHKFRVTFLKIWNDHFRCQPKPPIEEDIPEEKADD

[5] = system: locomotor activity in mice; details: CSC 1 mg/kg, shown earlier; cited from earlier work
[6] = target: T3, A1 receptors from rat brain membranes (Rattus norvegicus, UniProt P25099); assay: biochemical; assay type: binding
T3 construct: Rat cerebral cortical and striatal membranes were prepared; from tissue; host or cells: rat brain (cerebral cortical) membranes
T3 sequence (P25099 1-326): T2 sequence (Q60612 1-326) with E151V, A155D, I157R, E316D, I319L, D325E

[7] = target: T4, A2 receptors from rat striatal membranes (Rattus norvegicus, UniProt P30543); assay: Radioligand binding at A2 (A2a) receptors, displacement of [3H]CGS 21680 (or [3H]NECA with 50 nM CPA) from rat striatal membranes
T4 construct: Rat cerebral cortical and striatal membranes were prepared; from tissue; host or cells: rat striatal membranes
T4 sequence (P30543 whole entry): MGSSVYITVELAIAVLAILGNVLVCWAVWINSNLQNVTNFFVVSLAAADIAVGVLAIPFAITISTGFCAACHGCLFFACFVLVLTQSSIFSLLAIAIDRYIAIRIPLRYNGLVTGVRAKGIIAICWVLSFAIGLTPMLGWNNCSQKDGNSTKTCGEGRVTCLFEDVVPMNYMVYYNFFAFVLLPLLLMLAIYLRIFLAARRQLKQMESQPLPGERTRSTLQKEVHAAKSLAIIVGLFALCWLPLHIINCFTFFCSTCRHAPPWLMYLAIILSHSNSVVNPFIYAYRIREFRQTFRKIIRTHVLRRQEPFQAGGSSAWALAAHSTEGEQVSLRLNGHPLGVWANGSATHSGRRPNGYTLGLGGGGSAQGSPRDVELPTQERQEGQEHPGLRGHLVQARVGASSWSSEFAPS

rat A3 receptors = target: T5, rat A3 receptors (Rattus norvegicus, UniProt P28647); assay: Irreversible inhibition of radioligand binding at rat A3 receptors after preincubation
T5 construct: expressed in transfected cells; host or cells: CHO cells, transfected (the IC50); RBL-2H3 rat mast cells (endogenous) also named
T5 sequence (P28647 1-320): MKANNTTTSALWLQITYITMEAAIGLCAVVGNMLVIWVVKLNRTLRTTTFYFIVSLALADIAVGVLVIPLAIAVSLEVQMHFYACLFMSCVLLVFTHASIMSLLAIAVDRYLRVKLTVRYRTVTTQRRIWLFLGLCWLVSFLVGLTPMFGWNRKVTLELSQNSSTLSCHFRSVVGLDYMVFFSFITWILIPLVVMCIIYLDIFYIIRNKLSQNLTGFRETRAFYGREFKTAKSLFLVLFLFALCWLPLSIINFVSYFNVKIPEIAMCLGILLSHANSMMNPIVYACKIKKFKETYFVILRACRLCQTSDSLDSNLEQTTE

[8] = target: T4, A2 receptors from rat striatal membranes; details: Table 2, footnotes d/e: literature; read-out: Ki (A2); cited from earlier work
[9] = system: A1 and A3 adenosine receptors in mouse brain membranes
[10] = target: T6, A3 adenosine receptors in rat brain membranes (Rattus norvegicus, UniProt P28647)
T6 sequence (P28647 1-320): T5 sequence (P28647 1-320)

[11] = target: T7, A3 adenosine receptors in mouse brain membranes (Mus musculus, UniProt Q61618); assay: [125I]AB-MECA saturation binding to A3 receptors in mouse brain membranes in the presence of 100 nM CPX
T7 construct: in mouse brain membranes; from tissue; host or cells: NIH Swiss mouse brain region membranes (cerebellum for the Kd/Bmax)
T7 sequence (Q61618 1-319): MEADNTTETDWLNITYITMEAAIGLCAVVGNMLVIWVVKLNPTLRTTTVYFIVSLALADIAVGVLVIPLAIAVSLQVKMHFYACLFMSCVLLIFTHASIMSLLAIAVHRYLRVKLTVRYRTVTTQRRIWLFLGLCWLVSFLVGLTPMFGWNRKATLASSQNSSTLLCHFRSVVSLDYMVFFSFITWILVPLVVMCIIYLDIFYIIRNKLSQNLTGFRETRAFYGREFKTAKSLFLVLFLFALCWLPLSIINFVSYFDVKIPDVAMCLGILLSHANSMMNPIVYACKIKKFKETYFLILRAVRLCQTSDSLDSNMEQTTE

In the case of `OC[C@H]1O[C@@H](n2cnc3c(NC4CCCC4)ncnc32)[C@H](O)[C@@H]1O` [Compound 4, N^6 -cyclopentyladenosine, reference compound], the ED50 ([1]; Mus musculus, ip, read-out: ED50 for locomotor depression) is reported as 0.1 mg/kg, the “duration of bradycardiac effect” value ([2]; entire monitoring period) is reported as 90 min and the “drop in blood pressure” value ([2]; from initial value) is reported as 50%. The “drop in heart rate” value ([2]; from initial value) was 20% and the “time at which hypotensive effect begins to wane” value ([2]; post-injection) was “approximately 20 min”.
Work on `OC[C@H]1O[C@@H](n2cnc3c(NCc4ccccc4)ncnc32)[C@H](O)[C@@H]1O` [Compound 7, N^6 -benzyladenosine, reference compound] yielded a Ki [3] of 203 ± 93 nM.
With `CCCn1c(=O)c2[nH]c(C3CCCC3)nc2n(CCC)c1=O` [Compound 130, 8-cyclopentyl-1,3-dipropylxanthine] the “displacement of specific [125I]AB-MECA binding (in words)” value [4] was “completely displaced most but not all of the high affinity [^125 I]AB-MECA binding” and the “Ki for displacement of [125I]AB-MECA binding” value ([4]; sigmoidal competition curves) was 2 to 8 nM.
For `Cn1c(=O)c2c(nc(C=Cc3cccc(Cl)c3)n2C)n(C)c1=O` [Compound 134, 8-(3-chlorostyryl)caffeine], the “reversal of APEC-elicited behavioral depression (in words)” value [5] is given as “complete reversal”, the “displacement of specific [125I]AB-MECA binding (in words)” value [4] is given as “failed to displace specific binding of [^125 I]AB-MECA” and the “reversal of 3-IB-MECA-mediated locomotor depression (in words)” value ([1]; CSC 1 mg/kg) is given as “small, statistically insignificant reversal”.
`CNC(=O)[C@H]1O[C@@H](n2cnc3c(NCc4cccc(I)c4)nc(Cl)nc32)[C@H](O)[C@@H]1O` [Example 44, 2-chloro-N^6-(3-iodobenzyl)-9-[5-(methylamido)-β-D-ribofuranosyl]-adenine] gave a Ki [3] of 15200 nM.
With `CNC(=O)[C@H]1O[C@@H](n2cnc3c(NCc4cccc(I)c4)nc(SC)nc32)[C@H](O)[C@@H]1O` [Example 46, N^6-(3-iodobenzyl)-2-methylthio-9-[5-(methylamido)-β-D-ribofuranosyl]-adenine] the Ki ([6]; Table 2, [3H]PIA, rat brain membranes, read-out: Ki (A1)) was 2140 ± 100 nM, the Ki [3] was 49500 nM and the “Ratio of Ki (NBTI)/Ki ([125I]AB-MECA)” value ([3]; selectivity for cloned rat A3 receptors vs adenosine uptake site) was 22,000. For the same molecule, the Ki ([7]; Table 2, [3H]CGS 21680, rat striatal membranes, read-out: Ki (A2)) was 3210 ± 1360 nM.
For `CNC(=O)[C@H]1O[C@@H](n2cnc3c(NCc4cccc(N=C=S)c4)ncnc32)[C@H](O)[C@@H]1O` [N^6-(3-isothiocyanatobenzyl)adenosine-5'-N-methyluronamide], the IC50 (rat A3 receptors) was 50 nM, the “Kd of remaining A3 receptor sites (in words)” value (rat A3 receptors) was “No change was observed in the Kd value” and the “irreversible inhibition of A3 binding (in words)” value (rat A3 receptors; CHO cells or RBL-2H3 mast cells) was “irreversible inhibition of radioligand binding at rat A3 receptors”. For the same molecule, the Ki [6] was 145 nM, the “irreversible inhibition at rat A1 receptors (in words)” value [6] was “not at rat A1 or A2a receptors” and the Ki [7] was 272 nM. The “irreversible inhibition at rat A2a receptors (in words)” value [7] was “not at rat A1 or A2a receptors”.
In the case of `CNC(=O)[C@H]1O[C@@H](n2cnc3c(NCc4ccc(N)c([125I])c4)ncnc32)[C@H](O)[C@@H]1O` [[^125 I]AB-MECA, [^125 I]4-amino-3-iodobenzyladenosine-5'-N-methyluronamide], the Ki [8] is listed as 197 nM, the Bmax cerebellum ([4]; cerebellum) is listed as 120±5 fmol specifically bound/mg protein and the Bmax cortex ([4]; cortex) is listed as 159±15 fmol specifically bound/mg protein. The Bmax hippocampus ([4]; hippocampus) was 215±17 fmol specifically bound/mg protein, the “Kd values (Scatchard analysis)” value ([4]; regions of mouse brain) was 1.9 to 2.8 nM and the Bmax striatum ([4]; striatum) was 123±23 fmol specifically bound/mg protein. For the same molecule, the “specific binding of total binding” value [9] was “ca. 70 % of total binding”, the nonspecific binding ([9]; in the presence of 40 μM R-PIA) was “approximately 30 % of the total binding” and the “Bmax in rat brain membranes” value [10] was 43 fmol/mg protein. For the same molecule, the “A3 share of total specific binding, cerebellum and striatum” value ([11]; 0.4 nM [125I]AB-MECA) was 18 % of total specific binding, the “A3 share of total specific binding, hippocampus and cortex” value ([11]; 0.4 nM [125I]AB-MECA) was 7-9 % of total specific binding and the Kd ([11]; mouse cerebellar membranes) was 1.39 nM.
